One block for each compound: values may come before it. Active and inactive are the calls of the source.
Assays:
Genome polyprotein = Genome polyprotein (dengue virus type 2, UniProt P29990); test: Dengue-2 NS5 methyltransferase inhibitors, primary screen, biochemical, confirmation dose response (AID 588689); format: functional
[1] = biological target: Histone-lysine N-methyltransferase NSD2 (Homo sapiens, UniProt O96028); format: biochemical
[2] = biological target: T1, Heat shock factor protein 1 (Mus musculus, UniProt P38532); test: HSF1 potentiators in luciferase reporter cells, confirmation, cell-based, NIH3T3, luminescence, dose retest (AID 435004); format: functional;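 further: stress induced by proteasome inhibitor MG132 added 30 min after compound; luciferase reporter driven by HSF1 response element in NIH3T3 cells; actives raise luminescence as potentiators of the MG132 stress response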
T1 sequence (P38532 whole entry): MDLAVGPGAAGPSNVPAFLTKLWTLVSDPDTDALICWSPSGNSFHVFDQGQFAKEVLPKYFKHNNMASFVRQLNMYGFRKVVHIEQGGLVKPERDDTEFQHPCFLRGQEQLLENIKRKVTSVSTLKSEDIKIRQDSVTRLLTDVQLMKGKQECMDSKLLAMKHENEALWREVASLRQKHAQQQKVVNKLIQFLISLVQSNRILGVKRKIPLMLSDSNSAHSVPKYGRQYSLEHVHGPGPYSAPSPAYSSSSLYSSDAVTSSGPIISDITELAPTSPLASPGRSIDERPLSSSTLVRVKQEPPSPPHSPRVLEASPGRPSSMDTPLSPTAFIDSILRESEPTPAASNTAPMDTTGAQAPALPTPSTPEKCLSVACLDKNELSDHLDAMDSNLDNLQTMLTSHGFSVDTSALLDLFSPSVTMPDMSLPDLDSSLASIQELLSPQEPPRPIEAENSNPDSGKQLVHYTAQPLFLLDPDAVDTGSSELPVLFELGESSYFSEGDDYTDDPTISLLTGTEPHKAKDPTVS

[3] = MC4R antagonists, dose response, counter-screen for LGR2 antagonist project, cell-based, plate reader, cherry pick (AID 743444); format: functional;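 further: transfected HEK 293 cells stimulated with alpha-MSH peptide; potency of inhibitors of the alpha-MSH evoked signal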
[4] = A549 cell cytotoxicity, dose response, cytotoxicity control, plate reader, cherry-pick, antagonist series (AID 743412); format: functional, cell-based
[5] = HepG2 cell cytotoxicity, dose response, cytotoxicity control, plate reader, cherry-pick, antagonist series (AID 743416); format: functional, cell-based
[6] = LGR2 antagonists, dose response, cell-based, HEK293, CRE-luciferase reporter, cherry pick, set 2 (AID 743343); format: functional;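 further: transfected cells were stimulated with diluted bursicon conditioned medium after compound addition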
[7] = HEK293 cell cytotoxicity, dose response, cytotoxicity control, plate reader, cherry-picked samples (AID 743446); format: functional, cell-based
Kallikrein-7 = Kallikrein-7 (Homo sapiens, UniProt P49862); test: Fluorescence Intensity-based biochemical primary high throughput dose response assay to identify activators of kallikrein-7 (K7) zymogen.
Kallikrein-7, sequence (P49862 whole entry): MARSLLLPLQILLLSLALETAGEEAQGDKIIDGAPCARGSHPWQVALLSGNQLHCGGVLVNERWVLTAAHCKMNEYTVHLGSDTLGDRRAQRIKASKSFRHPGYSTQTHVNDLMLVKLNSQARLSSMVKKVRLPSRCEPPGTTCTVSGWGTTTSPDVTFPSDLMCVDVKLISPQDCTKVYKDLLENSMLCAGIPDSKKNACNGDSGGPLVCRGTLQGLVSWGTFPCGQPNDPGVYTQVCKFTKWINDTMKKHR

Paired box protein Pax-8 = Paired box protein Pax-8 (Homo sapiens, UniProt Q06710); test: inhibitors of PAX8-driven TPO luciferase reporter, dose response, RMG-I cells, cherry-pick (AID 687027); format: functional, cell-based;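 further: luciferase reporter driven by Pax8 target thyroperoxidase promoter measured by SteadyGlo luminescence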
Paired box protein Pax-8, sequence (Q06710 whole entry): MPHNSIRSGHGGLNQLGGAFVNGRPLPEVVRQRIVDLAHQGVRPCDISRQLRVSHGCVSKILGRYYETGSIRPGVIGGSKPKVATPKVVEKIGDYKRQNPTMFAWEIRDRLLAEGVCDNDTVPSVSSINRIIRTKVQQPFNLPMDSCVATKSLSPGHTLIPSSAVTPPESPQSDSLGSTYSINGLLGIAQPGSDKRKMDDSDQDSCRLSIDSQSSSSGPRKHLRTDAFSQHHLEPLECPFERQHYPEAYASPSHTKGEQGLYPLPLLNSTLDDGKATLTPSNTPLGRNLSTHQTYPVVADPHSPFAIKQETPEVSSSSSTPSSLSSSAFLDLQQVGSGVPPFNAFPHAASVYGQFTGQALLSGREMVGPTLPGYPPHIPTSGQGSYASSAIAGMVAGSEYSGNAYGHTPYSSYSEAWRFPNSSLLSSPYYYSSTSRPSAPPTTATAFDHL

[8] = non-specific cell cytotoxicity, dose response, cytotoxicity control for PAX8 inhibitor project, plate reader, dry powder samples (AID 743021); format: functional, cell-based
[9] = NIH:OVCAR-3 ovarian cancer cell cytotoxicity, dose response, PAX8 inhibitor project, plate reader, dry powder samples (AID 743044); format: functional, cell-based
[10] = cytotoxicity in OVCAR8 ovarian cancer cells, dose response, PAX8 project, cell-based, plate reader, dry powder samples (AID 743197); format: functional; settings: OVCAR-8
[11] = biological target: Endoplasmic reticulum aminopeptidase 1 (Homo sapiens, UniProt Q9NZ08); test: ERAP1 aminopeptidase inhibitors, dose response, biochemical, cherry-pick, set 2, plate reader (AID 743314)
Endoplasmic reticulum aminopeptidase 1, sequence (Q9NZ08 whole entry): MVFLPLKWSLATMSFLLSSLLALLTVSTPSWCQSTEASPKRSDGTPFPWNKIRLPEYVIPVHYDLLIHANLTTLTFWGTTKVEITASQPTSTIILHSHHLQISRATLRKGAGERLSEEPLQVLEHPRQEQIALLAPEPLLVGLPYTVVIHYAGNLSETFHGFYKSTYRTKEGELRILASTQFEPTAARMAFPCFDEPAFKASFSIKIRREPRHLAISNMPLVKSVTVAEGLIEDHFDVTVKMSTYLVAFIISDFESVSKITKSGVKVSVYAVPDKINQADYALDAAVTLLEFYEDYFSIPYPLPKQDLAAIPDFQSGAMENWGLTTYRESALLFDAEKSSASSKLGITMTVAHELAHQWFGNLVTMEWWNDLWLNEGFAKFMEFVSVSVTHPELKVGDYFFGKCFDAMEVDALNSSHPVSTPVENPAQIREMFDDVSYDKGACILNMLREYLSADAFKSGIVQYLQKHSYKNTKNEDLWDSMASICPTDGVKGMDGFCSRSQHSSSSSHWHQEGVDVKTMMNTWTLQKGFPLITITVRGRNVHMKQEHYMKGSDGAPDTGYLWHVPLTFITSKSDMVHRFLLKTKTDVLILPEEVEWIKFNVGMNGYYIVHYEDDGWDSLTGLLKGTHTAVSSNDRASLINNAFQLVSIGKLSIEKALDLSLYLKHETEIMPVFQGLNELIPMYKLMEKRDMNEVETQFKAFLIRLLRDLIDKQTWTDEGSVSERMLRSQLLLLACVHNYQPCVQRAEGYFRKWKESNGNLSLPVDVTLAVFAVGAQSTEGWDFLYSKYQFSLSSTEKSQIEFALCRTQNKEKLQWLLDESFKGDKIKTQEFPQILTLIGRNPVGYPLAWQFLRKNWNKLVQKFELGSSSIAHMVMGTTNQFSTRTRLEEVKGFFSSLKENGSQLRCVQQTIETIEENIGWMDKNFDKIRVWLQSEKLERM

[12] = P. falciparum Dd2 growth inhibitors, dose response, SYBR Green, cherry-picked samples (AID 1159567); format: functional, cell-based
[13] = P. falciparum Dd2 growth inhibitors, dose response, SYBR Green, dry powder samples (AID 1159566); format: functional, cell-based;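 further: potency for growth inhibition with lower SYBR green DNA signal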
[14] = P. falciparum ATP4 D1247Y mutant growth inhibitors, dose response, NITD609-resistant line, SYBR Green, dry powder (AID 1159571); format: functional, cell-based;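 further: parasites synchronized at ring stage by sorbitol before testing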
[15] = HepG2 cell cytotoxicity, dose response, cytotoxicity control, plate reader, dry powder samples (AID 1159569); format: functional, cell-based;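 further: inhibitor potency with signal falling toward the positive control level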
[16] = P. falciparum 3D7-ScDHODH growth inhibitors, dose response, SYBR Green, dry powder samples (AID 1159570); format: functional, cell-based;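 further: parasite growth measured after 72 hours of compound exposure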
[17] = HeLa 4N DNA content increase, dose response, cell-based, IC50 (AID 1117351); format: functional
[18] = HeLa 2N DNA content increase, dose response, cell-based, IC50 (AID 1117349); format: functional
[19] = RKO cell viability reduction, dose response, CellTiter-Glo luminescence (AID 1117322); format: functional
[20] = cytotoxicity toward HT-29 cells – cell-based, CellTiter-Glo luminescence, IC50, dose response (AID 1117330); format: functional
[21] = cytotoxicity toward Colo320 cells – cell-based, CellTiter-Glo luminescence, IC50, dose response (AID 1117334); format: functional; settings: COLO 320
[22] = CellTiter-Glo luminescent dose response of DLD-1 viability loss (AID 1117352); format: functional
[23] = cytotoxicity toward HCT116 cells – cell-based, CellTiter-Glo luminescence, IC50, dose response (AID 1117332); format: functional; settings: HCT-116
[24] = SNU-C1 cell viability reduction, dose response, CellTiter-Glo luminescence (AID 1117323); format: functional, cell-based
[25] = Concentration-dependent survival of SW480 colon cancer line, luminescence detection with CellTiter-Glo, half-maximal inhibitory concentration (AID 1117338); format: functional
[26] = Dose-response inhibition of insulin secretion in a rat insulinoma line at 5 mM glucose (AID 1117331); format: functional, cell-based; settings: INS-1E

Genome polyprotein, sequence (P29990 2492-3391 limits assumed): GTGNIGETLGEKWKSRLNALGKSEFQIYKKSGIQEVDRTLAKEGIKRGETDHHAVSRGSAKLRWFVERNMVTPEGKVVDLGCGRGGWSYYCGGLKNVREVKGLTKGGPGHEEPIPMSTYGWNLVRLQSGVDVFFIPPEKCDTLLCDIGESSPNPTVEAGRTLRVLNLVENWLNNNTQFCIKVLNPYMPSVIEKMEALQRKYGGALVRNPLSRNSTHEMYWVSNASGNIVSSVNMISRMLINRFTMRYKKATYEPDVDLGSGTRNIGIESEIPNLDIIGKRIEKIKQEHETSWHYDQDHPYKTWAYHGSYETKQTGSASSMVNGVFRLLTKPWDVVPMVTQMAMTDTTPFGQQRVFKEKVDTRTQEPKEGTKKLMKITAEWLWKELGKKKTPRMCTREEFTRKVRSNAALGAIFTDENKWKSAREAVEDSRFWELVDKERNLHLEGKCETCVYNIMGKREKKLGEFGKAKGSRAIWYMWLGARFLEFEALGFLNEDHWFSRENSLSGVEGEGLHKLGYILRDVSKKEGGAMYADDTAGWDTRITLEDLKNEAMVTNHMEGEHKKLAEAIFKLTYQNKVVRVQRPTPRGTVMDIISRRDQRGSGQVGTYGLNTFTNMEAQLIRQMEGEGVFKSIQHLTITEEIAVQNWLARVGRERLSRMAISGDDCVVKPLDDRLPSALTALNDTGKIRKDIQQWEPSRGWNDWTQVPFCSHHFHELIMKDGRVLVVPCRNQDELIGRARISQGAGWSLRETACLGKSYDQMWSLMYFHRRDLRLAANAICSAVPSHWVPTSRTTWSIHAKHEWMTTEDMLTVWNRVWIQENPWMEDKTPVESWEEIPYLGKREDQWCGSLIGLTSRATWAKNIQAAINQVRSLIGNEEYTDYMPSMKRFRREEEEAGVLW
Histone-lysine N-methyltransferase NSD2, sequence (O96028 whole entry): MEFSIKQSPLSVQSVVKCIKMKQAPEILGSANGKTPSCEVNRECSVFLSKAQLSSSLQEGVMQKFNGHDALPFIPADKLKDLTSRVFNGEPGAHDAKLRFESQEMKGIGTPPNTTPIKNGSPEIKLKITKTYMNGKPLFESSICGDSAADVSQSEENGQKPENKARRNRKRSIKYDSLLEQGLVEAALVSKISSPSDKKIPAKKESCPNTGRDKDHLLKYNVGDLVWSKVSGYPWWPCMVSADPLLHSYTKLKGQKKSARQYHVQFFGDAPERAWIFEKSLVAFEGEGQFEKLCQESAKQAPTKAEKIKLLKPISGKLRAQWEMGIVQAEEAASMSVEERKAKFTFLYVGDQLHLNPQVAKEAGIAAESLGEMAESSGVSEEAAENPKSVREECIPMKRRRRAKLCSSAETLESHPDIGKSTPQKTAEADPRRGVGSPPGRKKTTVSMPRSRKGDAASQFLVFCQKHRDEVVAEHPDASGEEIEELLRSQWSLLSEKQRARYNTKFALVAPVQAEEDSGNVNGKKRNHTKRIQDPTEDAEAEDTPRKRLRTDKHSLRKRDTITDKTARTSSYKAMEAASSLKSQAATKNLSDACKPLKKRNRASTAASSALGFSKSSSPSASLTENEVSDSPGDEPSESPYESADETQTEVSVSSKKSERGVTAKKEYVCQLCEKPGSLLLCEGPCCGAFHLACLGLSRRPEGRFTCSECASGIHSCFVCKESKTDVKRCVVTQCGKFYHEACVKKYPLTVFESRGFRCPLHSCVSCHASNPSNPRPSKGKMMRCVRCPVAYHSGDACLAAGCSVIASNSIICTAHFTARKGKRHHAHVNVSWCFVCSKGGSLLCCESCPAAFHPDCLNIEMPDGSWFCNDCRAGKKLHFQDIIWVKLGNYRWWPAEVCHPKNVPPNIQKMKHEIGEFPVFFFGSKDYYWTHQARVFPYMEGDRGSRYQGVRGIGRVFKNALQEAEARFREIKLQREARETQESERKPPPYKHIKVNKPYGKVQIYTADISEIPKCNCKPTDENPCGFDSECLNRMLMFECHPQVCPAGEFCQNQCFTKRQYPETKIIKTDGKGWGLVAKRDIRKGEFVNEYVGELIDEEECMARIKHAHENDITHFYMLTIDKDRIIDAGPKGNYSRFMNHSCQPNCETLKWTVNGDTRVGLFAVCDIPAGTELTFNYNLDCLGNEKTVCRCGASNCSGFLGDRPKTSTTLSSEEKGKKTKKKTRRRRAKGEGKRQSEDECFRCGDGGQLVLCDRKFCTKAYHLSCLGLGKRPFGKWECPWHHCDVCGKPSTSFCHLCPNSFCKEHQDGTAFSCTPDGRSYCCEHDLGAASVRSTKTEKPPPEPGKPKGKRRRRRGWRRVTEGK

Structure (SMILES): O=C(O)CN1C(=O)/C(=C\c2cc(Br)ccc2OCc2ccc(F)cc2)SC1=S
IC50 (Genome polyprotein): 31.4 µM (active)
AC50 [1]: 18.5 µM (active)
EC50 [2]: > 260 µM (inactive)

Structure (SMILES): COc1cc(OC)nc(Nc2nc(C(N)Cc3ccc(C(F)(F)F)cc3)cs2)n1 (stereo not given)
AC50 [3]: 24.8 µM (active)
AC50 [4]: 7.58 µM (active)
AC50 [5]: 7.18 µM (active)
AC50 [6]: 18.9 µM (active)
AC50 [7]: 15.7 µM (active)

EC50 (Kallikrein-7): > 69.5 µM (inactive)
Structure (SMILES): Cc1cccc(/C=N/c2ccccc2C(N)=O)c1

Structure (SMILES): CN(C)CC(=O)N1CCCCN2[C@H](CO)[C@H](c3ccc(/C=C/c4ccccc4)cc3)[C@H]2C1
AC50 (Paired box protein Pax-8): 9.31 µM (active)
AC50 [8]: 42.9 µM (active)
AC50 [9]: 47.6 µM (active)
AC50 [10]: 69.1 µM (active)

AC50 [11]: 4.85 µM (active)
Structure (SMILES): COCC(=O)N1[C@@H]2c3ccc(/C=C/c4ccccc4)c(=O)n3C[C@H]1[C@H](CO)[C@H]2C(=O)N1CCOCC1

AC50 [11]: 6.38 µM (active)
Structure (SMILES): C/C(=N\NC(=O)CC#N)c1cc2ccc(O)cc2oc1=O

Structure (SMILES): C[C@H]1CN([C@@H](C)CO)C(=O)c2c(c3ccccc3n2C)-c2ccccc2CO[C@H]1CN(C)C(=O)Nc1cccc(Cl)c1Cl
AC50 [12]: 3.09 µM (active)
AC50 [13]: 0.785 µM (active)
AC50 [14]: 0.897 µM (active)
AC50 [15]: 18.7 µM (active)
AC50 [16]: 1.77 µM (active)

Structure (SMILES): O=S(=O)(c1ccc(F)cc1)N1CCCCN2[C@@H](CO)[C@@H](c3ccc(C4=CCCCC4)cc3)[C@@H]2C1
AC50 [12]: 1.69 µM (active)
AC50 [13]: 1.07 µM (active)
AC50 [14]: 0.915 µM (active)
AC50 [15]: 12.8 µM (active)
AC50 [16]: 1.15 µM (active)

Structure (SMILES): C1CN(P2(N3CC3)=NP(N3CC3)(N3CC3)=NP(N3CC3)(N3CC3)=N2)CCO1 (stereo not given) [FOTRETAMINE]
IC50 [17]: > 10 µM (inactive)
IC50 [18]: > 10 µM (inactive)

Structure (SMILES): Cc1onc(-c2ccccc2)c1-c1ccc(S(N)(=O)=O)cc1 [VALDECOXIB]
IC50 [19]: > 20 µM (inactive)
IC50 [20]: > 20 µM (inactive)
IC50 [21]: > 20 µM (inactive)
IC50 [22]: > 20 µM (inactive)
IC50 [23]: > 20 µM (inactive)
IC50 [24]: > 20 µM (inactive)
IC50 [25]: > 20 µM (inactive)

Structure (SMILES): CCCC(CCC)C(=O)O [VALPROIC ACID]
IC50 [26]: > 33.3 µM (inactive)

— ChEMBL document CHEMBL1201862, “PubChem BioAssay data set” (2004)
